# Data taken from ChEMBL document CHEMBL3616392, “Design, synthesis and biological evaluation of novel tetrahydroisoquinoline derivatives as potential PDE4 inhibitors” (Bioorg Med Chem Lett, 2015).
# Assays:
# [1] = target: 3',5'-cyclic-AMP phosphodiesterase 4D (Homo sapiens) (UniProt Q08499); test: Inhibition of PDE4D isolated from human U937 cells using [3H]-cAMP as substrate at 20 uM after 30 mins; format: cell-free; settings: U-937
# [2] = target: 3',5'-cyclic-AMP phosphodiesterase 4B (Homo sapiens, UniProt Q07343); test: Inhibition of PDE4B isolated from human U937 cells using [3H]-cAMP as substrate after 30 mins; format: cell-free, U-937
# Chain of 3',5'-cyclic-AMP phosphodiesterase 4B (Q07343 whole entry): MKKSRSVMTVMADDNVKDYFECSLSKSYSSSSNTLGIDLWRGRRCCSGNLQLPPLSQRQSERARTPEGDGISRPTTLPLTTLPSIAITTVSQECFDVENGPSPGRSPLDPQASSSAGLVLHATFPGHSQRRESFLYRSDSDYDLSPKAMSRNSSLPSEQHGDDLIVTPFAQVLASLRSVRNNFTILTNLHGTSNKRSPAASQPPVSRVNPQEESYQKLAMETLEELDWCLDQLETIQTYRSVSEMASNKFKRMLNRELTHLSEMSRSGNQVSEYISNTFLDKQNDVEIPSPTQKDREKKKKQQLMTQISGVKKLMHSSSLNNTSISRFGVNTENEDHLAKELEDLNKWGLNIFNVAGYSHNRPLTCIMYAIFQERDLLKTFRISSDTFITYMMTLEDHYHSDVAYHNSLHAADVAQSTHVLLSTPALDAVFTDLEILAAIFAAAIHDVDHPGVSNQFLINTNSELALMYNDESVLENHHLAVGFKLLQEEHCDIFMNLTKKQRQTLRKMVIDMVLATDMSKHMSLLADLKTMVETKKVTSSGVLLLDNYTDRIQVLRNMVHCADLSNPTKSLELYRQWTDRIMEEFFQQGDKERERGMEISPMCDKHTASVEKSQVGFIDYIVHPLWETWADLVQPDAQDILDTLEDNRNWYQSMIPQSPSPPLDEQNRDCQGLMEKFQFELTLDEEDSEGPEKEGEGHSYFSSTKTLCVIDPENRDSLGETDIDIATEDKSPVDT
# Chain of 3',5'-cyclic-AMP phosphodiesterase 4D (Homo sapiens) (Q08499 whole entry): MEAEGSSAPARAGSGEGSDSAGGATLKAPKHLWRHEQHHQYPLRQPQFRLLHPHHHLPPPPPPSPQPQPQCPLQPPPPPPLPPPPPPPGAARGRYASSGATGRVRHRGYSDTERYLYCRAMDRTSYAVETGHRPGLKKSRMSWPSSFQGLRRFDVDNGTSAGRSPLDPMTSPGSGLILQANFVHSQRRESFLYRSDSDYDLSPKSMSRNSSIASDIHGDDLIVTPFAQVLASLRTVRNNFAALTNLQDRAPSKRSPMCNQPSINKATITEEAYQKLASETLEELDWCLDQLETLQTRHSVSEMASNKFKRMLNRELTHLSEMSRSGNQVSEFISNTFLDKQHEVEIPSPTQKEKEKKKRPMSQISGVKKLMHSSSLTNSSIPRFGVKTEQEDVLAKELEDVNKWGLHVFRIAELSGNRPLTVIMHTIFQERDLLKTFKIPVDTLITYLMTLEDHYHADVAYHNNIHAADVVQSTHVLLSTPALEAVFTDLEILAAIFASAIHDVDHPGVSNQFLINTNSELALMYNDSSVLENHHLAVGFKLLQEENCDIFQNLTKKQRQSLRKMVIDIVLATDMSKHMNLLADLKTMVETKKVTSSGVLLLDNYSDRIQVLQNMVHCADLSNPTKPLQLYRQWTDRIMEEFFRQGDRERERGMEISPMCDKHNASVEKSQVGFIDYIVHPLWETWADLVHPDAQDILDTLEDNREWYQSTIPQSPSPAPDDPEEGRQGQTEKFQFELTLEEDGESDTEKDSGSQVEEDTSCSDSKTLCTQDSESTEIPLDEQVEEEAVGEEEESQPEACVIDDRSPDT
compound,measurement,setting,value
COc1cc2c(cc1OC1CCCC1)CN(C(=O)c1ccncc1)CC2,inhibition,[1],12.1%
same,IC50,[2],15.7 µM
COc1cc2c(cc1OC1CCCC1)CN(C(=O)c1ccccc1Cl)CC2,inhibition,[1],15.3%
same,IC50,[2],15.5 µM
COc1cc2c(cc1OC1CCCC1)CN(C(=O)c1ccccc1)CC2,IC50,[2],23.5 µM
COc1cc2c(cc1OC1CCCC1)CN(Cc1ccccc1F)CC2,IC50,[2],43 µM
COc1cc2c(cc1OC1CCCC1)CN(C(=O)c1ccccn1)CC2,IC50,[2],37.9 µM
COc1cc2c(cc1OC1CCCC1)CN(C(=O)c1ccccc1OC)CC2,IC50,[2],37 µM
COc1cc2c(cc1OC1CCCC1)CN(Cc1ccncc1)CC2,IC50,[2],38.1 µM
COc1cc(C(=O)N2CCc3cc(OC)c(OC4CCCC4)cc3C2)ccc1O,inhibition,[1],17.4%
same,IC50,[2],2.3 µM
COc1cc2c(cc1OC1CCCC1)CN(C(=O)c1ccccc1F)CC2,IC50,[2],23.3 µM
COc1cc2c(cc1OC1CCCC1)CN(C(=O)[C@H]1CC[C@H](N)CC1)CC2,IC50,[2],> 50 µM
COc1cc(CN2CCc3cc(OC)c(OC4CCCC4)cc3C2)ccc1O,IC50,[2],26.8 µM
COc1cc2c(cc1OC1CCCC1)CN(C(=O)C1=C[C@@H](O)[C@@H](O)[C@H](O)C1)CC2,IC50,[2],> 50 µM
